Ten compounds from patent US7468255B2, “Method for assaying for natural killer, cytotoxic T-lymphocyte and neutrophil-mediated killing of target cells using real-time microelectronic cell sensing technology” (ACEA Biosciences, priority 2002, dated 2008) can be followed below.

The subject of series [1] is various cell types (listed in Table 1). In words: RT-CES profiling of dynamic cell responses to anti-cancer drugs. Type of series: cell-based. Conditions: for cell index curve pattern: cell lines of Table 1. As for the experimental part:
FIGS. 10A and B show the responses of various cell types (listed in Table 1) to olomoucine treatment as monitored using a cell-substrate imepdnace monitoring system of the presnet invention. The cellular responses were continuously monitored at 15 or 30 or 60 minutes time interval before and after treatment with olomoucine. […] Take the treatment of olomoucine at 100 uM as an example. […] The “near-constant” cell index curves were also observed for cells treated with roscovitine, which is another compound causing cell cycle arrest. The cell index curves shown in FIGS. 10A and 10B are strikingly different from the cell index curves shown in FIGS. 9A and 9B, and FIGS. 11A and 11B, where compounds follow different mechanism of compound action.
The cellular responses were continuously monitored at 15 or 30 or 60 minutes time interval before and after treatment with doxorubicin. […] Take the treatment of doxoorubincin at 3.13 uM as an example. For most of cell types tested, initially after the treatment, cell index increased with time in similar way to the cell index from DMSO control wells. After 10-20 hrs, depending on cell type, the cell index reached a peak and started decreasing with time. From that time on, the cell index monotonically decreases. […] Both Doxorubicin and 5-Fluorouacil act on cells through effects on DNA replication or topology.
The cellular responses were continuously monitored at 15 or 30 or 60 minutes time interval before and after treatment with paclitaxel. […] Take the treatment of palitaxel at 0.78-12.5 nM range as examples. […] For one particular cell index curve, after the cell index reached a minimum, it then reversed its decreasing trend and started to increase. […] All these compounds—i.e., paclitaxel, vinblastin and colcemid, are so called mitotic poisons and follow similar mechanism of drug action. For example, both vinblastin and paclitaxel act on microtubule dynamics within a cell.
In this study, we used the RT-CES system to dynamically monitor cancer cell responses to chemotherapeutic compounds with characterized mechanisms, and to profile the specific cell response patterns. Thirteen cancer cell lines including cancers of breast, prostate, lung, colon, ovary, kidney, fibroblast, and central nervous system were tested (Table 1). Each cancer cell type was treated with 11 chemotherapeutic compounds, classified as DNA damaging agents, protein kinase inhibitors, anti-mitotic drugs, cell cycle specific inhibitors, protein synthesis inhibitors plus a compound of unknown category (Table 2). Dynamic and dose dependent cell-compound interaction patterns were characterized and summarized for all the tested cell lines and compounds. The profiles for three drugs, doxorubicin, olomoucine and paclitaxel against a panel of 12 different cell lines are presented in FIGS. 9, 10 and 11, respectively. In addition, we characterized the biological effect of these compounds on cells by monitoring cell cycle progression, cell viability and morphological status of the cells in an attempt to correlate specific cellular response to the shape of the cell index trace (FIGS. 12, 13 and 14). Furthermore we calculated the time-dependent IC-50 values for each compound against the various cell lines (FIG. 15) and developed an algorithm to calculate Cell Change Index to profile the dynamic cell response of the different chemotherapeutic agents across the different cell lines. Cell Change Index was calculated for the dynamic RT-CES responses of different cell lines to different chemotherapeutic agents using the definitions described above. Based on the time-dependent values of CCI, each CCI value region across the time scale is represented by black-white shading-based coding. […]

Series [2] has as its system A549 cells. The series is classed as cell-based. Conditions: for effect of inhibitor alone on A549 baseline: A549 target cells without NK cells. On the procedure:
(§1) In order to observe the kinetics of drug interaction with target cells, A549 non-small lung cancer cells were seeded in ACEA 96× e-plate™ and continuously monitored until the cells reached the log growth phase at which point different concentrations of paclitaxel were added to the cells at the indicated final concentration. […] Remarkably, the cells recover from the initial cytotoxic effect of the drug and start to re-proliferate. While it remains to be determined if this phenomenon is due to metabolism and inactivation of paclitaxel or due to the emergence of paclitaxel-resistant subpopulation, this experiment clearly exemplifies the tremendous advantage of real-time measurement which is offered by the RT-CES system and allows the user to the opportunity to observe and assess the entire history of drug interaction with the target cells which provides further information in addition to cell viability or cytotoxicity. The phenomenon observed in FIG. 20A would've been easily missed by traditional single-point assays such as MTT.
Yet another major advantage of using the RT-CES system to continually monitor the interaction of drugs with target cells is that the user can obtain insight into the mechanism of action of the drug of interest. […] The cells were treated with either DMSO as the vehicle control or with 100 μM Olomoucine which is a CDK inhibitor and induces cell cycle arrest either at G1→S transition or at the G2→M transition, depending on the cell line. […] The control cells treated with DMSO continue to proliferate until they reach confluence, at which time they are contact inhibited and the Cell Index recording levels off. […]. Taken together, using the RT-CES system to dynamically monitor drug interaction with the target cells offers the user the opportunity to understand the mechanism of drug action and its mode of interaction with the target cell.

Series [3] has as its system NK-92-mediated cytolysis of A549 cells. Description: Inhibition of NK-mediated cytolysis of target cells by signaling pathway inhibitors (RT-CES). The series is classed as cell-based, human. Particulars: NK-92 pre-incubated with inhibitor, E/T 16:1. As for the experimental part:
FIG. 31. Specificity of NK-92 mediated cytolysis of target cells. (A) A549 cells were seeded in the wells of E-plates. Twenty four hours after seeding NK-cells at a density of 16:1 (E/T ratio) were pre-incubated with the different concentrations of the MEK inhibitor PD 98059 for thirty minutes and then added to A549 cells at the indicated time point (arrow). The viability of A549 cells were continually monitored using the RT-CES system. (B) The extent of NK-92 mediated cytolystic activity in the presence of MEK inhibitor was calculated at the indicated times post-NK addition as described in materials and methods section. (C) The effect of P13 Kinase inhibitor Wortmannin on NK-92 mediated cytolysis of A549 cells. […] (D) Percent cytolytic activity of NK-92 cells was calculated at the end of the experiment described in (C).
In this example, a microelectronic sensor-based platform, the RT-CES (real time electronic sensing) system, is introduced for label free assessment of natural killer (NK) cell-mediated cytolytic activity. The RT-CES system was used to dynamically and quantitatively monitor NK-mediated cytolysis of 9 different target cell lines, including cancer cell lines commonly used in laboratories. […] Cell growth was dynamically monitored using the RT-CES system for a period of 24-34 hours, depending on the experiment until they reached log growth phase and formed a monolayer. […]

For series [4], the system named is A549 cells. Description: Flow cytometry cell cycle analysis of A549 cells. The series is classed as cell-based, Human. Conditions: 100 μM.
Series [5] deals with H460 cells. In words: RT-CES time-dependent cell index of drug-treated H460 cells. Type of series: cell-based, human.
Description: The device was positioned on a device station that was located in an incubator maintaining conditions of 37 degrees C. and 5% CO2. […] The cell-substrate impedance monitoring system calculated the cell index at each time point monitored and plotted the cell index as a function of time.
The device was positioned on a device station that was located in an incubator maintaining conditions of 37 degrees C. and 5% CO2.
In series [6] the test system is A549 cells. Description: Annexin V staining of A549 cells. Type of series: cell-based, Human. Conditions: 12.5 nM for 20 hours. On the procedure: FIG. 20. Dynamic monitoring of drug interaction with target cells using a cell-substrate imepdnace monitoring system of the presnet invention. (A) A549 cells were seeded in a device of present invention at a density of 10,000 cells per well and the cells were continuously monitored up to 24 hours at which point paclitaxel was added at the indicated final concentrations. (B) Annexin V staining of A549 cells treated with DMSO or 12.5 nM paclitaxel for 20 hours.
as §1, with “The phenomenon observed in FIG. 20A would've been easily missed by traditional single-point assays such as MTT.” left out

For series [7], the system named is Cos-7 cells. In words: RT-CES monitoring of morphological changes in Cos-7 cells. The series is classed as cell-based. Particulars: serum starved Cos-7 cells; 50 nanograms/mL. On the procedure: Cells were seeded in wells of a 16 well monitoring device (16× E-Plate) of the present invention that engaged a device station of a cell-substate monitoring system. The device station was positioned in an incubator held at 37 degrees C. and 5% CO2. The cells were serum starved for 8 hours and then stimulated with 50 nanograms/mL of EGF. […] Impedance was monitored at 3 minute intervals for 2 hours and then at 1 hour intervals for 14 hours. The cell index was calculated by the system and plotted as a function of time. […] The arrow indicates the point of EGF addition.

For the compound `O=c1[nH]cc(F)c(=O)[nH]1` [5-Fluorouracil], the “cell index curve pattern” value in series [1] is “going up first and then going down”.
Turning to `COc1cccc(-c2cc(=O)c3ccccc3o2)c1N` [PD98059], the “effect of inhibitor alone on A549 baseline” value in series [2] was “minimal effect on the baseline”. Also, the “inhibition of NK-92-mediated cytolysis of A549 cells” value in series [3] is listed as “dose-dependently inhibited”.
On the same counts, the results for `COC[C@H]1OC(=O)c2coc3c2[C@@]1(C)C1=C(C3=O)[C@@H]2CCC(=O)[C@@]2(C)C[C@H]1OC(C)=O` [Wortmannin] are “minimal effect on the baseline” and “dose-dependently inhibited”.
As for `CN[C@H]1CCc2cc(OC)c(OC)c(OC)c2-c2ccc(OC)c(=O)cc21` [colcemid], the “cell index curve pattern” value in series [1] is “going down and then going up”.
Consider `COc1cccc2c1C(=O)c1c(O)c3c(c(O)c1C2=O)C[C@@](O)(C(=O)CO)C[C@@H]3O[C@H]1C[C@H](N)[C@H](O)[C@H](C)O1` [doxorubicin], for which the “time after treatment at which cell index reached a peak and started decreasing” value in series [1] (3.13 uM, most cell types tested, depending on cell type) was 10 to 20 h.
As for `Cn1cnc2c(NCc3ccccc3)nc(NCCO)nc21` [olomoucine], the “cell cycle analysis by flow cytometry” value in series [4] was “cell cycle arrest at the G2→M transition”. The “Cell Index trace” value in series [2] (exponentially growing A549 cells, 100 μM) is “level off and remain in a steady state”. Besides, the cell index response entry in series [1] (100 uM, significant number of cell types tested, for some length of time (10, 20 or 30 hrs)) is given as “near-constant cell index”.
Take `CC(=O)O[C@H]1C(=O)[C@@]2(C)[C@H]([C@H](OC(=O)c3ccccc3)[C@]3(O)C[C@H](OC(=O)[C@H](O)[C@@H](NC(=O)c4ccccc4)c4ccccc4)C(C)=C1C3(C)C)[C@]1(OC(C)=O)CO[C@@H]1C[C@@H]2O` [paclitaxel]: in series [5] (33 nM), the “time over which cell index exhibited a near-constant value” is “about 15 hours”. Moreover, the “cell index change after compound addition” value in series [5] (concentration between 67 nM and 500 nM) is given as “gradual decrease in cell index”. Besides, the “Annexin V staining” value in series [6] is listed as “cell death”. In addition, the “effect on A549 cell index” value in series [2] (human) is recorded as “initially induces a cytotoxic effect”. Also, the “duration of initial decrease in cell index” value in series [1] (0.78-12.5 nM) lay in the range of 15 to 20 h. Also, the “duration of initial cell index decrease before cell index increase” value in series [1] (nM concentration, varies between cell types) is on record as “about 15 hrs”.
For the compound `CC[C@H](CO)Nc1nc(NCc2ccccc2)c2ncn(C(C)C)c2n1` [roscovitine], the “cell index curve pattern” value in series [1] is listed as “near-constant”.
Same read-out and setting: as for `CC[C@]1(O)C[C@@H]2CN(CCc3c([nH]c4ccccc34)[C@@](C(=O)OC)(c3cc4c(cc3OC)N(C)[C@H]3[C@@](O)(C(=O)OC)[C@H](OC(C)=O)[C@]5(CC)C=CCN6CC[C@]43[C@@H]65)C2)C1` [vinblastin], the entry is “going down and then going up”.
With epidermal growth factor [EGF], the “cell index response (morphological change)” value in series [7] was “initial jump in cell index”.
